# The source made the active and inactive calls. No cut-off for these calls is given here.
# What was measured:
# [1] = target: T1, Protein cereblon/Polycomb protein EED (Homo sapiens, UniProt O75530+Q96SW2); test: PROTAC activity at CRBN/EED in human K562 cells assessed as degradation of EED protein expression at 10 uM measured after 12 hrs by Western blotting analysis relative to control; format: cell-based
# [2] = target: T2, Protein cereblon/E3 ubiquitin-protein ligase RING2 (Homo sapiens, UniProt Q96SW2+Q99496); test: PROTAC activity at CRBN/RING1B in human K562 cells assessed as degradation of RING1B protein expression at 10 uM incubated for 20 hrs in presence of MG132 by Western blotting analysis; format: cell-based
# [3] = target: T2, Protein cereblon/E3 ubiquitin-protein ligase RING2; test: PROTAC activity at CRBN/RING1B in human K562 cells assessed as degradation of RING1B protein expression at 10 uM measured after 4 hrs by Western blotting analysis; format: cell-based
# [4] = system: PC-3M; test: Antiproliferative activity against human PC-3M cells assessed as inhibition of cell growth at 1 to 10 uM incubated for 5 days by WST-8 assay; format: functional, cell-based; conditions: dose 1-10 µM, time 5.0 day
# [5] = target: T3, Protein cereblon/Polycomb complex protein BMI-1 (Homo sapiens, UniProt Q96SW2+P35226); test: PROTAC activity at […] in human K562 cells assessed as degradation of BMI1 protein expression at 10 uM measured after 12 hrs by Western blotting analysis relative to control; format: cell-based
# [6] = target: T3, Protein cereblon/Polycomb complex protein BMI-1; test: PROTAC activity at […] in human K562 cells assessed as degradation of BMI1 mRNA expression at 10 uM incubated for 20 hrs by RT-qPCR analysis; format: cell-based
# [7] = target: T1, Protein cereblon/Polycomb protein EED; test: PROTAC activity at CRBN/EED in human K562 cells assessed as degradation of EED mRNA expression at 10 uM incubated for 20 hrs by RT-qPCR analysis; format: cell-based
# [8] = system: PC-3M; test: Induction of PRC1 degradation in human PC-3M cells assessed as reduction of H2AK119ub chromatin mark at 1 uM incubated for 24 hrs by Western blotting analysis; format: cell-based
# [9] = target: T3, Protein cereblon/Polycomb complex protein BMI-1; test: PROTAC activity at […] in human K562 cells assessed as degradation of BMI1 protein expression at 10 uM incubated for 20 hrs in presence of MLN4924 by Western blotting analysis; format: cell-based
# [10] = target: T2, Protein cereblon/E3 ubiquitin-protein ligase RING2; test: PROTAC activity at CRBN/RING1B in human K562 cells assessed as degradation of RING1B protein expression at 10 uM incubated for 20 hrs in presence of MLN4924 by Western blotting analysis; format: cell-based
# [11] = Drug concentration in Swiss albino mouse plasma at 50 mg/kg,ip administration measured after 2 hrs by LC-MS/MS analysis; format: ADME, organism-based
# [12] = target: Protein cereblon/Histone-lysine N-methyltransferase EZH2 (Homo sapiens) (UniProt Q15910+Q96SW2); test: PROTAC activity at CRBN/EZH2 in human K562 cells assessed as degradation of EZH2 protein expression at 0.1 to 10 uM incubated for 24 hrs by Western blotting analysis; format: cell-based; conditions: dose 0.1-10 µM
# [13] = system: PC-3M; test: Inhibition of colony formation in human PC-3M cells at 1 to 10 uM incubated for 14 days by crystal violet staining based assay; format: functional, cell-based; conditions: dose 1-10 µM, time 14.0 day
# [14] = target: T2, Protein cereblon/E3 ubiquitin-protein ligase RING2; test: PROTAC activity at CRBN/RING1B in human K562 cells assessed as degradation of RING1B protein expression at 10 uM incubated for 20 hrs in presence of EED226 by Western blotting analysis; format: cell-based
# [15] = system: PNT2; test: Cytotoxicity against human PNT2 cells assessed as inhibition of cell growth measured upto 15 uM incubated for 5 days by WST-8 assay; format: toxicity, cell-based; conditions: pnt2, 120 h, time 5 day
# [16] = target: Polycomb protein EED (Homo sapiens, UniProt O75530); test: Binding affinity to EED (75 to 441 residues) (unknown origin) expressed in Escherichia coli BL21 (DE3) assessed as dissociation constant by isothermal titration calorimetry
# [17] = target: T4, Protein cereblon/Polycomb protein SUZ12 (Homo sapiens) (UniProt Q15022+Q96SW2); test: PROTAC activity at CRBN/SUZ12 in human PC-3M cells assessed as degradation of SUZ12 protein expression at 0.2 to 5 uM incubated for 24 hrs by Western blotting analysis; format: cell-based; conditions: dose 0.2-5 µM
# [18] = system: 786-0; test: Antiproliferative activity against human 786-0 cells assessed as inhibition of cell growth at 30 uM incubated for 7 days by WST-8 assay; format: functional, cell-based; conditions: time 7.0 day
# [19] = target: T4, Protein cereblon/Polycomb protein SUZ12 (Homo sapiens); test: PROTAC activity at CRBN/SUZ12 in human K562 cells assessed as degradation of SUZ12 protein expression at 0.1 to 10 uM incubated for 24 hrs by Western blotting analysis; format: cell-based; conditions: dose 0.1-10 µM
# [20] = system: PC-3M; test: Induction of PRC1 degradation in human PC-3M cells assessed as reduction of H2AK119ub chromatin mark at 5 uM incubated for 24 hrs by Western blotting analysis; format: cell-based
# [21] = target: T3, Protein cereblon/Polycomb complex protein BMI-1; test: PROTAC activity at […] in human K562 cells assessed as degradation of BMI1 protein expression at 10 uM incubated for 20 hrs in presence of EED226 by Western blotting analysis; format: cell-based
# [22] = target: Protein cereblon/Chromobox protein homolog 8 (Homo sapiens) (UniProt Q9HC52+Q96SW2); test: PROTAC activity at CRBN/CBX8 in human K562 cells assessed as degradation of CBX8 protein expression at 1 to 10 uM incubated for 24 hrs by Western blotting analysis; format: cell-based; conditions: dose 1-10 µM
# [23] = system: K562; test: Induction of PRC2 degradation in human K562 cells assessed as reduction of H3K27me3 chromatin mark at 0.1 to 10 uM incubated for 24 hrs by Western blotting analysis; format: cell-based; conditions: dose 0.1-10 µM
# [24] = system: 786-0; test: Induction of PRC2 degradation in human 786-0 cells with defective VHL assessed as reduction of H3K27me3 chromatin mark at 10 uM incubated for 24 hrs by Western blotting analysis; format: cell-based
# [25] = target: Protein cereblon/RING1 and YY1-binding protein (Homo sapiens) (UniProt Q96SW2+Q8N488); test: PROTAC activity at CRBN/RYBP in human K562 cells assessed as degradation of RYBP protein expression at 1 to 10 uM incubated for 24 hrs by Western blotting analysis; format: cell-based; conditions: dose 1-10 µM
# [26] = system: PC-3M; test: Induction of PRC2 degradation in human PC-3M cells assessed as reduction of H3K27me3 chromatin mark at 5 uM incubated for 24 hrs by Western blotting analysis; format: cell-based
# [27] = target: Protein cereblon/Eukaryotic peptide chain release factor GTP-binding subunit ERF3A (Homo sapiens) (UniProt Q96SW2+P15170); test: PROTAC activity at CRBN/GSPT1 in human K562 cells assessed as degradation of GSPT1 protein at 0.1 to 10 uM incubated for 4 hrs by Western blotting analysis; format: cell-based; conditions: dose 0.1-10 µM
# [28] = target: Protein cereblon/E3 ubiquitin-protein ligase RING1 (Homo sapiens) (UniProt Q96SW2+Q06587); test: PROTAC activity at CRBN/RING1A in human K562 cells assessed as degradation of RING1A protein expression at 1 to 10 uM incubated for 24 hrs by Western blotting analysis; format: cell-based; conditions: dose 1-10 µM
# T2 sequence (Q96SW2 whole entry): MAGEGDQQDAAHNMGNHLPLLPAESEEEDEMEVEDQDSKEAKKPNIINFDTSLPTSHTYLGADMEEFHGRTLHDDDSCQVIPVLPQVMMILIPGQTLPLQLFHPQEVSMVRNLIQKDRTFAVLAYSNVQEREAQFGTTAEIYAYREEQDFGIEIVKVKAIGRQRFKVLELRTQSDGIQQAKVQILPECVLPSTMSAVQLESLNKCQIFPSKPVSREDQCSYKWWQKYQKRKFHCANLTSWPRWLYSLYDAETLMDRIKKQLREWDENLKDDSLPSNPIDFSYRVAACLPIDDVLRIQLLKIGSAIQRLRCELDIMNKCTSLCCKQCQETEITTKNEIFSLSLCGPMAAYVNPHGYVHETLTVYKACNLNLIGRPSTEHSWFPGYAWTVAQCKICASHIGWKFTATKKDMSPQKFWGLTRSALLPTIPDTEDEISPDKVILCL
# T2 sequence (Q99496 2-336 partner limits assumed): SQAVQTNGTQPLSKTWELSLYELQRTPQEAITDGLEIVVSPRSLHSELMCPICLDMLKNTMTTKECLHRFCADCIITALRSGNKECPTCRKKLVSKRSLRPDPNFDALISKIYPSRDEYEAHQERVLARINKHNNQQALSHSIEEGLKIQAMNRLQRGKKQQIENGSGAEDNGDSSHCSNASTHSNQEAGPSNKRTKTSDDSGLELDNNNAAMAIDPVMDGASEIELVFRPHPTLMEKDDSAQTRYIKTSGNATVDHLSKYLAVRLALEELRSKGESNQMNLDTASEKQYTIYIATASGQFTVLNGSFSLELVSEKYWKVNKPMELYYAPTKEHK
# T3 sequence (P35226 whole entry, looked up): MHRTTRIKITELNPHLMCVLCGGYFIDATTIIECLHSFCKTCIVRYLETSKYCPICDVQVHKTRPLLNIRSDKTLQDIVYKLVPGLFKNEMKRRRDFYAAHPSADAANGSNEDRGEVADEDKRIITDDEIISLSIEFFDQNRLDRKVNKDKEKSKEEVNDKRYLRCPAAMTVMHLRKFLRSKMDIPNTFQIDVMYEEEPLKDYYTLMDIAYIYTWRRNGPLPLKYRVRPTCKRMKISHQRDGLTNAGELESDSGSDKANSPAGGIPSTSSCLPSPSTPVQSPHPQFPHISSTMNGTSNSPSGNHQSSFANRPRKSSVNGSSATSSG
# T3 sequence (Q96SW2 whole entry, looked up): as the sequence (Q96SW2 whole entry) above
# T1 sequence (O75530 2-441 limits assumed): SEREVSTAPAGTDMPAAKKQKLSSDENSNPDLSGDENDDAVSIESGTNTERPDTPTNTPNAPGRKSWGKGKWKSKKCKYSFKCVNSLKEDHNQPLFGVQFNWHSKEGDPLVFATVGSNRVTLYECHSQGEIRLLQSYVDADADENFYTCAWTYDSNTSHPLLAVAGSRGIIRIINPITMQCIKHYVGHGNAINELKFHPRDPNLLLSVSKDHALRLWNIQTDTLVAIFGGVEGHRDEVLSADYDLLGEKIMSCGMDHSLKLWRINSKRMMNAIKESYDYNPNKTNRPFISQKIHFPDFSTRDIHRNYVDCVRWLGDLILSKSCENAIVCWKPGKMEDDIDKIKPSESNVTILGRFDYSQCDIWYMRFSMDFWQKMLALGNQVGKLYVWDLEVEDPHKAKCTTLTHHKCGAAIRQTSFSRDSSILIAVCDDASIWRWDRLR
# T1 sequence (Q96SW2 whole entry partner): as the sequence (Q96SW2 whole entry) above
# T4 sequence (Q15022 whole entry, looked up): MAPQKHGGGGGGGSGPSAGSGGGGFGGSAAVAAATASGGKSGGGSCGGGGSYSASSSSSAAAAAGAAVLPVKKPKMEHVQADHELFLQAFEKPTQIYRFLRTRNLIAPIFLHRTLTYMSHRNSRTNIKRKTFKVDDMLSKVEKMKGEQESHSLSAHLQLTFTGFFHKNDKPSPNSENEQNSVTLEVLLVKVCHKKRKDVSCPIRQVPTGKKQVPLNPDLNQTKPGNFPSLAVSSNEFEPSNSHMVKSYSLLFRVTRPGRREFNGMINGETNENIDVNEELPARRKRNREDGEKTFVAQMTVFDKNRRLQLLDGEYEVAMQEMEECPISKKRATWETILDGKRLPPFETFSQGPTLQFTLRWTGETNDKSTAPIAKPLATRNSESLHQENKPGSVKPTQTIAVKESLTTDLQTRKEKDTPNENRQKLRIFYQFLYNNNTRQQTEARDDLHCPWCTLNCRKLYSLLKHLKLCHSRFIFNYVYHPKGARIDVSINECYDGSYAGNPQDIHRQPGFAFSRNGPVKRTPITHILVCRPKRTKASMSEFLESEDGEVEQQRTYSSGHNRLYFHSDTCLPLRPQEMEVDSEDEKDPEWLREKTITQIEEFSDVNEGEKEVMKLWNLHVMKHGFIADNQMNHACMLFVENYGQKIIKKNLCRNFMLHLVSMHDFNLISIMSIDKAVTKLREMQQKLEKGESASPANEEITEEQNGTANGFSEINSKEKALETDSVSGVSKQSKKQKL
# T4 sequence (Q96SW2 whole entry, looked up): as the sequence (Q96SW2 whole entry) above
# Chain of Protein cereblon/Histone-lysine N-methyltransferase EZH2 (Homo sapiens) (Q15910 whole entry, looked up): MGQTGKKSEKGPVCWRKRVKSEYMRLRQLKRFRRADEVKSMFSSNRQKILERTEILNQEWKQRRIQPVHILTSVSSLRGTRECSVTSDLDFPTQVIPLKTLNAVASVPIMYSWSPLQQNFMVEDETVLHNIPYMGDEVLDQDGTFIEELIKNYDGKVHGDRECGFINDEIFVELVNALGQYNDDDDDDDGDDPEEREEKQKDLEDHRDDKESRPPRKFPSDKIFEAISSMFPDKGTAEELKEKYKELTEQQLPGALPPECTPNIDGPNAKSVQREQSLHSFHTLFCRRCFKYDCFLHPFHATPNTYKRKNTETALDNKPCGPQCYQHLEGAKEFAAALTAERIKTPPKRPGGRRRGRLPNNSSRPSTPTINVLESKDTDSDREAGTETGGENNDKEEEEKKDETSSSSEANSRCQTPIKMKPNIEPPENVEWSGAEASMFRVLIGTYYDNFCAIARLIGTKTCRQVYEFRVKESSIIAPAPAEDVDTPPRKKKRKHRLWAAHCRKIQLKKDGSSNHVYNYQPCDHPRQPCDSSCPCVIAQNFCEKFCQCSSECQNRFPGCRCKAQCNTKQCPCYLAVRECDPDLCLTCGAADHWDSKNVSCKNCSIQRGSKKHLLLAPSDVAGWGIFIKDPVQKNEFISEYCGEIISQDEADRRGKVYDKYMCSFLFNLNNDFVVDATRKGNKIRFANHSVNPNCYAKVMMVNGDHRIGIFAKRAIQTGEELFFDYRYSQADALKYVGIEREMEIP
# Chain of Protein cereblon/Histone-lysine N-methyltransferase EZH2 (Homo sapiens) (Q96SW2 whole entry, looked up): as the sequence (Q96SW2 whole entry) above
structure (smiles),measurement,setting,value
O=C(CNc1cccc2c1C(=O)N(C1CCC(=O)NC1=O)C2=O)NCCCCN1CCN(c2ccc(-c3cnc(NCc4ccco4)n4cnnc34)cc2)CC1 (stereo not drawn),Activity,[1],50%
same,Activity,[2],inactive
same,Activity,[3],Active
same,Activity,[4],Active
same,Activity,[5],100%
same,Activity,[6],inactive
same,Activity,[7],inactive
same,Activity,[8],Active
same,Activity,[9],inactive
same,Activity,[10],inactive
same,concentration at 2 h,[11],> 1000 nM
same,Activity,[12],Active
same,inhibition,[13],Active
same,Activity,[14],inactive
same,Activity,[15],Non-Toxic
same,Kd,[16],190 nM
same,Activity,[17],inactive
same,Activity,[18],Active
same,Activity,[19],Active
same,Activity,[20],Active
same,Activity,[21],inactive
same,Activity,[22],inactive
same,Activity,[23],Active
same,Activity,[24],inactive
same,Activity,[25],inactive
same,Activity,[26],inactive
same,Activity,[27],inactive
same,Activity,[28],Active
